Experimental data taken from ChEMBL document CHEMBL1147725, “Identification and biological characterization of 6-aryl-7-isopropylquinazolinones as novel TRPV1 antagonists that are effective in models of chronic pain” (J Med Chem, 2006).
≈ marks a conversion by molar mass, not a printed value.

Legend:
[1] = target: T1, Transient receptor potential cation channel subfamily V member 1 (Homo sapiens, UniProt Q8NER1); assay: Inhibition of calcium influx evoked by capsaicin in human TRPV1 expressing cells by fluorescence assay; assay type: functional
[2] = Aqueous solubility at pH 6.8 and 25 degC; assay type: physicochemical; conditions: aqueous medium
[3] = Half life in rat at 3 mg/kg, po; assay type: ADME, organism-based; set-up: dose 3 mg/kg, route oral; conditions: Wistar Han, in vivo
[4] = target: T1, Transient receptor potential cation channel subfamily V member 1; assay: Inhibition of low pH activation of human TRPV1; assay type: functional

T1 sequence (Q8NER1 whole entry): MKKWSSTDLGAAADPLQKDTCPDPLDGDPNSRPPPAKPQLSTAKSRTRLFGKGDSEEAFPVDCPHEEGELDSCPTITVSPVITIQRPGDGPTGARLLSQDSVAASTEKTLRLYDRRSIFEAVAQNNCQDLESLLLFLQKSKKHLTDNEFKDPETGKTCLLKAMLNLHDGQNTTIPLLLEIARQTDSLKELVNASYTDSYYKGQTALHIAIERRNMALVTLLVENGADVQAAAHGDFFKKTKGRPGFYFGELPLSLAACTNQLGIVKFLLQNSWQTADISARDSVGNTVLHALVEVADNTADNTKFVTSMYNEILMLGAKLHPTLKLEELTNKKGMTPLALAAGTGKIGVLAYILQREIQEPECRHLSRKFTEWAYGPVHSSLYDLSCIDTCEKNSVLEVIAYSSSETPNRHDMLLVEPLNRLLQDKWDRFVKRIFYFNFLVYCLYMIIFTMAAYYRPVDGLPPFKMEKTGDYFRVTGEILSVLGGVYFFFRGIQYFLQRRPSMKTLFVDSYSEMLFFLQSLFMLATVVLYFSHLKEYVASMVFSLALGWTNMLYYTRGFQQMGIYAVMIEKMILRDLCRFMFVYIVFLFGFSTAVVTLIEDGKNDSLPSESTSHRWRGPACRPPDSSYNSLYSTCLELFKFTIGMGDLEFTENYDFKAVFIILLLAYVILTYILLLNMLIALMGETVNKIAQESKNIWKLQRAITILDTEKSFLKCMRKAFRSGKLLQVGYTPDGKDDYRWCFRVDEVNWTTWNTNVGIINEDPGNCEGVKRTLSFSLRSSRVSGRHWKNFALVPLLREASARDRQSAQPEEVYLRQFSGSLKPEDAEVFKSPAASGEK

Row | Compound | IC50 [1] | solubility [2] | half-life [3] | IC50 [4]
1 | COc1cc(Cl)cc(-c2cc3c(O)nc(C)nc3cc2C(C)C)c1 | 100 nM | – | – | –
2 | Cc1nc2cc(C(C)C)c(-c3ccc(Cl)cc3)cc2c(=O)[nH]1 | 13 nM | 4 µg/mL (≈ 12.8 µM) | – | –
3 | CC(C)(C)c1nc2[nH]c(=S)[nH]c(=O)c2cc1-c1ccc(Cl)cc1 | – | 0.15 µg/mL (≈ 0.434 µM) | 7.5 h | 18 nM
